How the values were obtained:
[1] = molecular target: Phosphatidylinositol 4-phosphate 3-kinase C2 domain-containing subunit beta (Homo sapiens, UniProt O00750); test: Inhibition of human PI3KC2beta by non-radiometric ADP-Glo assay
[2] = Inhibition of human class 4 PI3K by non-radiometric ADP-Glo assay
[3] = Inhibition of human class 1 PI3K by non-radiometric ADP-Glo assay
[4] = molecular target: DNA-dependent protein kinase catalytic subunit (Homo sapiens, UniProt P78527); test: Inhibition of human DNA-PK by non-radiometric ADP-Glo assay
[5] = molecular target: Phosphatidylinositol 4-phosphate 3-kinase C2 domain-containing subunit alpha (Homo sapiens, UniProt O00443); test: Inhibition of human PI3KC2alpha by non-radiometric ADP-Glo assay
Sequence of Phosphatidylinositol 4-phosphate 3-kinase C2 domain-containing subunit alpha (O00443 whole entry, the tested form may be a part): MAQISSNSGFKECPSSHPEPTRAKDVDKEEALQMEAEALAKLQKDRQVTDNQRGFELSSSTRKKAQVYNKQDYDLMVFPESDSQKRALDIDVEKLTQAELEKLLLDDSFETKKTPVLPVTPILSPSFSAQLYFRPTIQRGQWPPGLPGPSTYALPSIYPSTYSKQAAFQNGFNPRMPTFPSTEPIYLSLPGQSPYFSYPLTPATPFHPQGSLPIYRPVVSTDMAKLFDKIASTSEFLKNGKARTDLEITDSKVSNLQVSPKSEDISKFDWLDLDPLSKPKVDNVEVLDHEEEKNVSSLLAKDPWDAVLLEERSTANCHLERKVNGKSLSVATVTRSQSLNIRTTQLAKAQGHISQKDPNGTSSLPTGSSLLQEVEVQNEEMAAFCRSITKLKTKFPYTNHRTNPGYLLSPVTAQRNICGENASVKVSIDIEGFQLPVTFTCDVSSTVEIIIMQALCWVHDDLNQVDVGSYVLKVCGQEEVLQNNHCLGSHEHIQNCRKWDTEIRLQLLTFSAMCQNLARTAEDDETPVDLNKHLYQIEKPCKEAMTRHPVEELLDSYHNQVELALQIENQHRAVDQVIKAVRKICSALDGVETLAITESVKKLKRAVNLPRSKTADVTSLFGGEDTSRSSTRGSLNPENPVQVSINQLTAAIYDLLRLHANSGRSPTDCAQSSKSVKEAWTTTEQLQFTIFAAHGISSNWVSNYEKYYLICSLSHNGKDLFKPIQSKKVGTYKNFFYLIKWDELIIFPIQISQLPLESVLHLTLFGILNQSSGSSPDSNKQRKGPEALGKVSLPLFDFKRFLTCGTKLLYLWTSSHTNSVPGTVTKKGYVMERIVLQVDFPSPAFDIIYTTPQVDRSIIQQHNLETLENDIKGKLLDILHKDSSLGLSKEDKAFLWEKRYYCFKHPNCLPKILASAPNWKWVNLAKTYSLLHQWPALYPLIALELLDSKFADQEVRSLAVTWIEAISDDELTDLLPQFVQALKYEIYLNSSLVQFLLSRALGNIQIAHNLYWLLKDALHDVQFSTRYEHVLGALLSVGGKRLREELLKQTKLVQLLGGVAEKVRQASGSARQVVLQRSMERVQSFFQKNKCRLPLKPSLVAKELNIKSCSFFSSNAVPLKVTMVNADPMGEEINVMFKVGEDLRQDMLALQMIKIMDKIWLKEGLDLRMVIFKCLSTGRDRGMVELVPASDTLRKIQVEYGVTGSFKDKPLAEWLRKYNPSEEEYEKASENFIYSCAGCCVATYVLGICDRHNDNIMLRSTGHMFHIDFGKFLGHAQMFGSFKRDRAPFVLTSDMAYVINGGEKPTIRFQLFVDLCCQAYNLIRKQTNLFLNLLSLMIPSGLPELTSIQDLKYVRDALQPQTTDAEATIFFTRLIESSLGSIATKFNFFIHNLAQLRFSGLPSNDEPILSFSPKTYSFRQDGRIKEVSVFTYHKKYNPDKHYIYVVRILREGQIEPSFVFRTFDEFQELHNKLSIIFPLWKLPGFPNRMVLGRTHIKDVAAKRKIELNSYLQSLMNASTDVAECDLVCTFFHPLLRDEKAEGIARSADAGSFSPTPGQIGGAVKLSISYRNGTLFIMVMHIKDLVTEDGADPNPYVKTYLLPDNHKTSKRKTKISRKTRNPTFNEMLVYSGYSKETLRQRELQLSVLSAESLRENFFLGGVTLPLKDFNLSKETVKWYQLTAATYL

[6] = molecular target: Serine/threonine-protein kinase mTOR (Homo sapiens, UniProt P42345); test: Inhibition of human mTOR by non-radiometric ADP-Glo assay

Sequence of Phosphatidylinositol 4-phosphate 3-kinase C2 domain-containing subunit beta (O00750 whole entry, the tested form may be a part): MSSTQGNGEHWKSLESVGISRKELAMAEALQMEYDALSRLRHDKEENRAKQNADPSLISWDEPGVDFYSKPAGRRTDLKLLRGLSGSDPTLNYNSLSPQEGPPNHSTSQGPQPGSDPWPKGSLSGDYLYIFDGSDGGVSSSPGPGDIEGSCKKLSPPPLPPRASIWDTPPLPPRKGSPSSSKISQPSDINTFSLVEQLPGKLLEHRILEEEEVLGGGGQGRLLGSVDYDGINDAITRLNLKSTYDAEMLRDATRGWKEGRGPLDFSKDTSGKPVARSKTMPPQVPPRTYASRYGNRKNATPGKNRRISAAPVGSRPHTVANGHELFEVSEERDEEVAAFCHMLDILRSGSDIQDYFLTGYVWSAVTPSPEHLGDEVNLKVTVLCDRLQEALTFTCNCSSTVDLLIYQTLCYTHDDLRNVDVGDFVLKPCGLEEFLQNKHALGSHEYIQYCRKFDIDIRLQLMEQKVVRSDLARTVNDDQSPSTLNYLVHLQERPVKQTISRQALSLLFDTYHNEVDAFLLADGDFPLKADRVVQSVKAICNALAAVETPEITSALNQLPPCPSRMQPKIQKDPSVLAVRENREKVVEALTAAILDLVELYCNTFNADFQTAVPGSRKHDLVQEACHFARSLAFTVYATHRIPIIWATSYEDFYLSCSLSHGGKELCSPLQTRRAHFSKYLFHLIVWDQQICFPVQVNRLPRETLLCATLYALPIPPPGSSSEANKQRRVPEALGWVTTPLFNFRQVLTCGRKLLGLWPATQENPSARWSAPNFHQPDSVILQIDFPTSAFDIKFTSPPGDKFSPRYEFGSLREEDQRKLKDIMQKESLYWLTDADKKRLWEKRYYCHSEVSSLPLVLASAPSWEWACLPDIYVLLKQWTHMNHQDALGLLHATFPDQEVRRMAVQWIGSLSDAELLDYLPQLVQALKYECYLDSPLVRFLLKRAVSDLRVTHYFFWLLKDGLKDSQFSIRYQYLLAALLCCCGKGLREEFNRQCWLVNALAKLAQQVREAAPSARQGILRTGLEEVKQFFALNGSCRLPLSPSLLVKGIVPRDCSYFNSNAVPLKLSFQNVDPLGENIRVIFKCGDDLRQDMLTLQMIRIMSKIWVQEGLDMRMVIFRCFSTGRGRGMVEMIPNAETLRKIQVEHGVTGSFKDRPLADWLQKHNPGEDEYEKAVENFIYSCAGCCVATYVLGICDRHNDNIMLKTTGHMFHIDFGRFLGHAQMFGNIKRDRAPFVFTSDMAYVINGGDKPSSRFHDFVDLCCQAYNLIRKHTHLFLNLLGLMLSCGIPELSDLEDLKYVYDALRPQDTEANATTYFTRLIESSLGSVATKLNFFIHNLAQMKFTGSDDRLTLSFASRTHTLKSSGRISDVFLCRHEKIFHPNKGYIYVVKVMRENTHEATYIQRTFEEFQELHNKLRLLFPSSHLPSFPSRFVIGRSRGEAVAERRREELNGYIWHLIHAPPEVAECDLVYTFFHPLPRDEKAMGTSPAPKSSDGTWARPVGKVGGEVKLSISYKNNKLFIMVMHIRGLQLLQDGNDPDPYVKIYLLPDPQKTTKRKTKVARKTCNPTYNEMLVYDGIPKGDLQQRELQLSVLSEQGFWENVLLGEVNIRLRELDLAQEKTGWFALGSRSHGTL

Row | IC50 [1] [nM] | IC50 [4] [nM] | IC50 [5] [nM] | IC50 [6] [nM] | SMILES | IC50 [2] [nM] | IC50 [3] [nM]
1 | 630 |  |  |  | CC(=O)Nc1ccc2nc(-c3cccc(NS(=O)(=O)c4ccccc4)c3)nc(N3CCOCC3)c2c1 | > 100000 | > 10000
2 | 140 | 64 | 16000 |  | CC(=O)Nc1nc(C)c(-c2ccc(Cl)c(S(=O)(=O)NCCO)c2)s1 |  | 
3 | 180 |  | > 100000 | 370 | FC(F)c1nc2ccccc2n1-c1nc(N2CCOCC2)nc(N2CCOCC2)n1 [ZSTK-474] |  | 
4 | 10400 |  | 27000 | 3900 | O=c1cc(N2CCOCC2)oc2c(-c3ccccc3)cccc12 [LY-294002] |  | 
5 |  |  | 1000 |  | Oc1cccc(-c2nc(N3CCOCC3)c3oc4ncccc4c3n2)c1 [PI-103] |  | 
6 |  |  | > 100000 |  | CS(=O)(=O)N1CCN(Cc2cc3nc(-c4cccc5[nH]ncc45)nc(N4CCOCC4)c3s2)CC1 [PICTILISIB] |  | 
7 | 64 | 13 | 47 |  | COc1ccc2c(c1OC)N=C(NC(=O)c1cccnc1)N1CCN=C21 |  | 
8 | 370 | 1500 | 140 |  | O=C1NC(=S)S/C1=C/c1ccc2c(c1)N(Cc1ccc(F)c(Cl)c1)C(=O)CO2 |  | 
9 | > 1000 |  |  |  | CC[C@H](Nc1ncnc2[nH]cnc12)c1nc2cccc(F)c2c(=O)n1-c1ccccc1 [IDELALISIB] |  | 

Row | SMILES | IC50 [1] [nM] | IC50 [4] [nM] | IC50 [5] [nM] | IC50 [6] [nM] | IC50 [2] [nM] | IC50 [3] [nM]
10 | CC(=O)Nc1ccc2nc(-c3cccc(NS(=O)(=O)c4cccc5ccccc45)c3)nc(N3CCOCC3)c2c1 | 530 |  |  |  | > 100000 | > 10000

— ChEMBL document CHEMBL3352433, “Class II but Not Second Class-Prospects for the Development of Class II PI3K Inhibitors” (ACS Med Chem Lett, 2015)
